Laboratory results: patent publication US6537545B1, “Use of corneal hardening agents in enzymeorthokeratology” (ISTA Pharmaceuticals, Inc., priority 1998, dated 2003)

What was measured:
Type in all cases: in vivo
[1] = test system: eyes of non-sighted human patients; assay: Safety of enzymatic corneaplasty with hyaluronidase and topical 3% glyceraldehyde in two non-sighted human patients (Example 4)
Experimental: The two patients (Nos. 1108 and 1105) each received an intrastromal injection of 500 IU of hyaluronidase. […] Patient 1108 wore the lenses for 21 days while patient 1105 wore the lenses for 50 days.
Patient 1108 was treated according to the protocol outline above. After the 21 day lens wearing period had expired, the patient was instructed to apply two (2) drops of the 3% glyceraldehyde solution four times per day. The application of 3% glyceraldehyde continued for thirty-six (36) days after lens wear had ceased. Following termination of the 3% glyceraldehyde treatment, the patient was examined occasionally and the final examination was administered 126 days following the cessation of glyceraldehyde treatment.
This patient was treated as described above and wore the RGP lenses for 50 days. Unlike patient 1108, patient 1105 was treated with the 3% glyceraldehyde solution for one (1) month while the patient was wearing the RGP contact lenses. The 3% glyceraldehyde solution was applied four times per day for a total period of 43 days.

Dutch Belted rabbit eyes [2] = assay: GLP safety study, histopathology (Example 3); settings: rarely noted in both glyceraldehyde and saline treated groups; Study Day 40
From the text: On Study Day 40, after 32 days of drops, the animals were sacrificed and the eyes were harvested according to the methods described in Experiment 2. The eyes were fixed in half-strength Karnovsky's fixative as described in Experiment 2 and sent to a Board Certified Veterinary Pathologist for interpretation.

Dutch Belted rabbit eyes [3] = assay: GLP safety study, slit lamp biomicroscopy and intraocular pressure (Example 3)
Experimental: This study was conducted in compliance with the Good Laboratory Practices requirements of the U.S. Food and Drug Administration. Here, 27 eyes were randomly chosen to form the control group and the remaining 27 eyes formed the experimental group. All of the animals received ophthalmic examinations consisting of slit lamp biomicroscopy (as described in Experiment 2) and intraocular pressure measurements (IOP) as generally practiced in the art, before the experiment began to establish baseline conditions.
Following baseline examinations, all rabbits received 500 IU in 20 μL of hyaluronidase into the corneal stroma bilaterally using the injection method described in Experiment 1. No examinations or treatments were performed on the animals until Study Day 8. On Study Day 8, the animals received slit lamp examinations and IOP measurements.
Treatment with topical eyedrops began immediately after the Day 8 examinations. Each rabbit received 2 drops of test agent four times a day at 05:00, 09:00, 13:00 and 17:00. The 3% glyceraldehyde solution was prepared in 0.9% sodium chloride USP under Good Manufacturing Practices (GMP). The 0.9% sodium chloride for injection was also prepared using GMP. Each rabbit eye in the experimental group received the 3% glyceraldehyde solution while the control eyes received a 0.9% sodium chloride solution. […]

[4] = test system: eye of myopic human patient; assay: Safety and efficacy of hyaluronidase and topical 3% glyceraldehyde solution, myopia in a human patient (Example 8); settings: 50 IU hyaluronidase, lenses, 3% glyceraldehyde drops 15 days; monitored 196 days
Experimental: In this study, a single subject was selected to test the safety and efficacy of using hyaluronidase and a glyceraldehyde solution to treat sub-optimal visual acuity. In this study, the subject was first medically evaluated and a baseline was established. A medical history of the subject was taken and a detailed examination of the subject's eyes was also performed. The subject's eyes were tested to determine: refraction, cell count, intraocular pressure (IOP), pachymetry, corneal topography and corneal elasticity. A slit-lamp examination was also performed to establish the health of the eyes. Also, the presence of any general or ocular discomfort of the subject was noted.
Following the establishment of a baseline reading (UVA 20/300), the subject was administered a single intrastromal injection of 50 IU hyaluronidase prior to the orthokeratology treatment. Following 7 days of incubation of the subject's eyes with the injected material, the subject was fitted with corrective contact lenses for overnight wear. The subject wore the corrective lenses day and night for a period of seven (7) days. At this point the subject's visual acuity was 20/15. […] The visual acuity of the subject was then monitored for 196 days to determine the effect of the treatment on the unaided visual acuity of the subject;

Dutch Belted rabbit eyes [5] = assay: Slit lamp biomicroscopy including Rose Bengal staining (Example 2)
Experimental: This example further examines the safety of glyceraldehyde treatment in an animal model. The experiment described in Example 2 involved the study of six (6) pigmented Dutch Belted rabbits, two (2) in the control group and four (4) in glyceraldehyde treated experimental group. On Study Day 1, all rabbits received a thorough ophthalmic examination including slit lamp biomicroscopy and indirect ophthalmoscopy.
The slit lamp biomicroscopy was performed substantially as described in Example 1. However, Rose Bengal stain was used here applied using Rose Bengal Ophthalmic Strips (Barnes-Hind, Inc., Sunnyvale, Calif.). This procedure involved a sterile strip wetted in 0.9% sodium chloride applied to the […] and sciera of an examined rabbit. The rabbit was allowed to blink applying the stain and then the treated eye was examined. Slit lamp biomicroscopy including Rose Bengal staining was performed on Study Days 1 (baseline), 8, 9, 11, 15, 34, 45, and 63. The animals were scored and the results recorded using the criteria described in Example 1.
Following baseline examinations, the rabbits were anesthetized and received a corneal intrastromal injection of 500 IU of hyaluronidase in OD (right eye) only using the method described in Example 1.
The administration of the test agents in the form of topical eyedrops began on Study Day 8. The control animals were administered a Balanced Saline Solution (BSS) (IOLAB Corporation, Claremont, Calif.) four times a day in each eye. The experimental animals received a 3% glyceraldehyde solution. The glyceraldehyde solution was prepared under sterile conditions at Advanced Corneal Systems (Irvine, Calif.) by dissolving 18 grams of glyceraldehyde in 600 mL of 0.9% sodium chloride USP, sterile filtering, and aliquotting the 3% glyceraldehyde (w/v) solution into 10 ml droppers. The experimental rabbits received one drop of glyceraldehyde solution four times a day using the technique described in Example 1. The rabbits received topical drops for a total of 63 days.

For O=CC(O)CO (centres unmarked) [glyceraldehyde], the “level of SPK after termination of lens wear while continuing 3% glyceraldehyde” value ([1]; patient 1105) was “observed to decrease”, the “level of superficial punctate keratopathy (SPK) during lens wear and 3% glyceraldehyde application” value ([1]; patient 1105, 500 IU hyaluronidase, RGP lenses 50 days, drops four times per day, 43 days) was “not observed to increase” and the “appearance of corneas at follow-up” value ([1]; patient 1105, 98 days post cessation of glyceraldehyde treatment) was “appeared normal”. The “appearance of corneas under slit-lamp biomicroscopy” value ([1]; patient 1105, within 48 hours of ceasing the 43 day glyceraldehyde treatment) was “appeared normal under slit-lamp biomicroscopy and were free of any SPK”, the “effects on the stroma or the endothelial cells during glyceraldehyde treatment” value ([1]; patient 1108, 500 IU hyaluronidase, lenses 21 days, then 3% glyceraldehyde 2 drops four times per day, 36 days) was “did not indicate any deleterious effects” and the “adverse reactions after completion of treatment” value ([1]; patient 1108, after the 36 day protocol up to final examination 126 days after cessation) was “Nor were there any adverse reactions observed”. The “overall observable negative results” value ([1]; two non-sighted human patients) was “no observable negative results”, the “histopathology: focal increase in cellularity of corneal stroma, reduplication of Descemet's membrane, relation to treatment” value (Dutch Belted rabbit eyes [2]) was “not associated with treatment with the drops” and the “overall deleterious effects in rabbits” value (Dutch Belted rabbit eyes [3]; 3% glyceraldehyde solution, 32 days) was “no significant deleterious effects”. For the same compound, the “number of the 14 criteria (slit lamp findings, IOP) with statistically significant differences between control and glyceraldehyde treated groups” value (Dutch Belted rabbit eyes [3]; 27 rabbits, 500 IU hyaluronidase bilaterally, 3% glyceraldehyde 2 drops four times a day, 32 days vs 0.9% sodium chloride, any timepoint) was “None”, the “duration of correction of unaided visual acuity” value [4] was “more than six months” and the “day by which aqueous cell/flare was absent” value (Dutch Belted rabbit eyes [5]; glyceraldehyde treated cohort had cell and flare at baseline) was no more than 14 days. For the same compound, the “changes to the structure of the eyes as compared to controls” value (Dutch Belted rabbit eyes [5]; rabbits, 3% glyceraldehyde 1 drop four times a day, 63 days, 500 IU hyaluronidase in right eye only) was “no significant changes” and the “effect on resolution of baseline aqueous cell and flare” value (Dutch Belted rabbit eyes [5]; rabbits, 3% glyceraldehyde drops four times a day) was “did not appear to impair the resolution of the cell and flare”.
